The source of these data is patent publication US11136297B2, “Compositions and methods for treating cancer” (THE REGENTS OF THE UNIVERSITY OF CALIFORNIA, priority 2016, dated 2021).

The target of assay [1] is T1, H-Ras(M72C) GppNHp binding to Raf-1-RBD (Homo sapiens, UniProt P01112, M72C).
T1 construct: and H-Ras (residues 1-166) were transformed into Escherichia coli; His6; made in house; host or cells: Escherichia coli BL21(DE3)
As to the kind of experiment: Raf-1-RBD pull-down of labeled H-Ras(M72C) GppNHp. Conditions: H-Ras(M72C) GppNHp pre-labeled with compound; various concentrations of H-Ras. The method, then: (§1) FIGS. 29A-29D. […] FIG. 29D: Reconstruction of Ras cycle is achieved by inducing nucleotide exchange of 100 nM Ras by various concentrations of SOS^cat for either 1 or 2 hours and subsequent pull-down by Raf-1-RBD.
(§2) FIGS. 33A-33D. […] In FIG. 33B) through FIG. 33D), normalized pull-down signals are shown below the blot. S. E. M for each signal, number of replicates, and […] for each comparative Standard T-Test are summarized herein (see Tables 33B, 33C, and 33D). […] Comparative statistics were done for normalized pull-down signals between protein constructs of the same condition (i.e. in FIG. 33B) and FIG. 33C), column 1 for unlabeled and 1 for labeled protein, 2 for unlabeled and 2 for labeled, and so on were statistically compared, and in FIG. 33D) only the +SOS^cat and +GppNHp lanes were compared across protein constructs). FIG. 33A) Cartoon representation of pull down protocol. […] Reported values are quantified pull-down signals normalized to input. FIG. 33B) Cartoon representation of pull down protocol. […] FIG. 33C) Cartoon representation of pull down protocol. […] FIG. 33D) Cartoon representation of pull down protocol. Ras activation is achieved by catalyzing nucleotide exchange by SOS^cat and indirectly reading out activated Ras by subsequent pull down by Raf-1-RBD.

The target in assay [2] is T2, H-Ras(M72C) activation by SOScat (Homo sapiens, UniProt P01112, M72C).
T2 construct: and H-Ras (residues 1-166) were transformed into Escherichia coli; His6; made in house; host or cells: Escherichia coli BL21(DE3)
Nature of the assay: SOScat catalyzed nucleotide exchange read out by Raf-1-RBD pull-down. The class given is biochemical. The protocol: as §1, §2

Assay [3] addresses T3, H-Ras(M72C) GDP binding to SOScat (Homo sapiens, UniProt P01112, M72C).
T3 construct: and H-Ras (residues 1-166) were transformed into Escherichia coli; His6; made in house; host or cells: Escherichia coli BL21(DE3)
Nature of the assay: Ras GDP in vitro pull down by His6 tagged SOScat. The method, then:
Ras GDP In Vitro Pull Down Assay by His6 Tagged SOS^CAT
This experiment was created based on a procedure published in Hall et al., 2001. For each SOS^CAT in vitro pull down the total volume was 500 μL. Each reaction had the following final composition: Either 20, 80, 200, 400, or 800 nM Ras GDP (from 0.2 mg/mL Ras stock), 75 nM BSA (2.5 μg, 5 μL of 0.5 mg/mL BSA stock), 200 nM of His6-SOS^CAT (6 μg, 3 μL of diluted 0.2 mg/mL stock of His6-SOS^CAT), and SOS^CAT Pull Down Buffer to volume (20 mM Tris (pH 7.6), 50 mM NaCl, 5 mM EDTA, 1% Triton X-100, 20 mM imidazole). Samples were then mixed by gentle rotation at 4° C. for 30 min. While equilibrating, add 50 μL Ni-NTA slurry (Qiagen) to a cellulose acetate spin cup and spin at 5,000 rpm on a tabletop centrifuge for 30 seconds. Wash the beads with 400 μL of SOS^CAT Pull Down Buffer to wash away bead storage buffer. Before adding each pull down solution, take 10 μL and save as a loading control sample. To each spin cup filled with washed Ni-NTA beads, add the remaining equilibrated pull down solution, seal the spin cup with parafilm and let rotate at 4° C. for 30 more minutes. After mixing, centrifuge the sample for 30 seconds at 5,000 rpm. Toss flow through. Wash the beads×5 with 400 μL of SOS^CAT Pull Down Buffer. After last wash, centrifuge one last time to remove any excess buffer stuck to the beads. To each cup, add 50 μL of 5×SDS loading buffer and mix by vortexing. Let the buffer sit on the beads for 5 minutes and then elute into a fresh tube by centrifuging at 5000 rpm for 1.5 minutes. Load 10 μL of each loading control sample and 25 μL of each eluted pull down onto a SDS-PAGE gel and transfer to a nitrocellulose blot for Western Blot analysis. Block with 5% BSA TBS buffer and then blot with pan Ras primary antibody at a 1:500 dilution in 5% BSA in TBST (Cell Signaling #3965). Blots were read out using LICOR compatible secondary antibodies and quantified. The largest input signal was normalized to one for each protein construct and each pull-down signal (i.e. 20 nM, 80 nM, 200 nM, 400 nM, and 800 nM respectively) was reported relative to that maximum signal. Thus, normalized pull-down signals represent the proportion of Ras pulled down relative to the maximum blot signal detected for that particular protein construct.

Assay [4] deals with H-Ras(M72C) GppNHp (Homo sapiens, UniProt P01112, M72C). As to the kind of experiment: EDTA catalyzed exchange and subsequent pull-down by Raf-1-RBD (nucleotide preference). The settings on record: EDTA catalyzed exchange, then pull-down by Raf-1-RBD. In kind it is biochemical. Details: and H-Ras (residues 1-166) were transformed into Escherichia coli; His6; made in house; host or cells: Escherichia coli BL21(DE3). The protocol: as §1, §2

Each structure is given as a SMILES string. Entries after “also recorded” stand apart in the source; their conditions may differ.

Take `COc1ccc(-n2ncc(C(=O)NCCCSSCCN(C)C)c2C(F)(F)F)cc1` [Compound 2C07, N-(3-((2-(dimethylamino)ethyl)disulfanyl)propyl)-1-(4-methoxyphenyl)-5-(trifluoromethyl)-1H-pyrazole-4-carboxamide]: the Raf-1-RBD binding result in assay [1] is “does not inhibit Raf binding; also recorded: permits Raf-1-RBD binding”. Besides, the “SOScat catalyzed nucleotide exchange” value in assay [2] is reported as “inhibits activation of H-Ras by SOS^cat; also recorded: inhibits SOS^cat catalyzed nucleotide exchange”. The “Normalized Averaged Pull Down (SOS PD Assay)” value in assay [3] (H-Ras(M72C) 2C07, [Ras] printed 200 nM, input normalized 1.00) came out at 0.09; in assay [3] (H-Ras(M72C) 2C07, [Ras] 20 nM) it was 0.002; in assay [3] (H-Ras(M72C) 2C07, [Ras] 80 nM), 0.01; in assay [3] (H-Ras(M72C) 2C07, [Ras] 200 nM), 0.03; in assay [3] (H-Ras(M72C) 2C07, [Ras] 400 nM), 0.06. For the same compound, the nucleotide preference entry in assay [4] is on record as “alters intrinsic Ras affinity for nucleotide towards GDP; also recorded: alters Ras nucleotide preference”.
